Measurements reported in the supplement of paper PMC10307832.

Legend:
Assay in all cases: relative viability (nuclei count vs DMSO), 5 days (fraction); higher = more cells survive
CAL-12T = system: CAL-12T
Summary of the method: (§1)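 Lung cancer cell lines in 1536-well plates got either a single drug or a fixed anchor-drug dose together with five library-drug doses (not always all listed) in √10 steps, by pin tool, on the day after seeding. Nuclei were counted after 5 days, and relative viability is the treated-to-vehicle ratio of nuclei counts. Values are medians of duplicate plates.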

NCI-H1975 = system: NCI-H1975
Summary of the method: as §1

NCI-H2085 = system: NCI-H2085
Summary of the method: as §1

NCI-H1993 = system: NCI-H1993
Summary of the method: as §1

EKVX = system: EKVX
Summary of the method: as §1

HCC-366 = system: HCC-366
Summary of the method: as §1

COR-L 105 = system: COR-L 105
Summary of the method: as §1

NCI-H322M = system: NCI-H322M
Summary of the method: as §1

NCI-H441 = system: NCI-H441
Summary of the method: as §1

NCI-H460 = system: NCI-H460
Summary of the method: as §1

SK-MES-1 = system: SK-MES-1
Summary of the method: as §1

HCC-827 = system: HCC-827
Summary of the method: as §1

NCI-H2087 = system: NCI-H2087
Summary of the method: as §1

H3255 = system: H3255
Summary of the method: as §1

NCI-H1355 = system: NCI-H1355
Summary of the method: as §1

NCI-H1792 = system: NCI-H1792
Summary of the method: as §1

NCI-H2009 = system: NCI-H2009
Summary of the method: as §1

EPLC-272H = system: EPLC-272H
Summary of the method: as §1

NCI-H2228 = system: NCI-H2228
Summary of the method: as §1

ABC-1 = system: ABC-1
Summary of the method: as §1

## Cc1cn(-c2cc(NC(=O)c3ccc(C)c(Nc4nccc(-c5cccnc5)n4)c3)cc(C(F)(F)F)c2)cn1 [Nilotinib] + Cc1nc(NC(=O)N2CCC[C@H]2C(N)=O)sc1-c1ccnc(C(C)(C)C(F)(F)F)c1 [Alpelisib] (partner 2 µM)
CAL-12T; first compound 0.003162 µM
  relative viability: 1.67
CAL-12T; first compound 0.01 µM
  relative viability: 1.92
CAL-12T; first compound 0.03162 µM
  relative viability: 0.653
CAL-12T; first compound 0.1 µM
  relative viability: 1.22
NCI-H1975; first compound 0.001 µM
  relative viability: 0.723
NCI-H1975; first compound 0.003162 µM
  relative viability: 0.867
NCI-H1975; first compound 0.01 µM
  relative viability: 0.868
NCI-H1975; first compound 0.03162 µM
  relative viability: 0.737
NCI-H1975; first compound 0.1 µM
  relative viability: 0.648
NCI-H2085; first compound 0.001 µM
  relative viability: 0.967
NCI-H2085; first compound 0.003162 µM
  relative viability: 1.05
NCI-H2085; first compound 0.01 µM
  relative viability: 1.07
NCI-H2085; first compound 0.03162 µM
  relative viability: 0.87
NCI-H2085; first compound 0.1 µM
  relative viability: 0.92
NCI-H1993; first compound 0.001 µM
  relative viability: 0.716
NCI-H1993; first compound 0.003162 µM
  relative viability: 0.66
NCI-H1993; first compound 0.01 µM
  relative viability: 0.755
NCI-H1993; first compound 0.03162 µM
  relative viability: 0.594
NCI-H1993; first compound 0.1 µM
  relative viability: 0.617
EKVX; first compound 0.001 µM
  relative viability: 0.813
EKVX; first compound 0.003162 µM
  relative viability: 1.13
EKVX; first compound 0.01 µM
  relative viability: 1.29
EKVX; first compound 0.03162 µM
  relative viability: 0.909
EKVX; first compound 0.1 µM
  relative viability: 1.02
HCC-366; first compound 0.001 µM
  relative viability: 0.312
HCC-366; first compound 0.003162 µM
  relative viability: 0.43
HCC-366; first compound 0.01 µM
  relative viability: 0.428
HCC-366; first compound 0.03162 µM
  relative viability: 0.248
HCC-366; first compound 0.1 µM
  relative viability: 0.342
COR-L 105; first compound 0.001 µM
  relative viability: 0.905
COR-L 105; first compound 0.01 µM
  relative viability: 1.22
COR-L 105; first compound 0.03162 µM
  relative viability: 0.92
COR-L 105; first compound 0.1 µM
  relative viability: 0.917
NCI-H322M; first compound 0.001 µM
  relative viability: 0.882
NCI-H322M; first compound 0.003162 µM
  relative viability: 0.817
NCI-H322M; first compound 0.03162 µM
  relative viability: 0.72
NCI-H322M; first compound 0.1 µM
  relative viability: 0.866
NCI-H441; first compound 0.001 µM
  relative viability: 0.761
NCI-H441; first compound 0.003162 µM
  relative viability: 1.14
NCI-H441; first compound 0.01 µM
  relative viability: 0.765
NCI-H441; first compound 0.1 µM
  relative viability: 0.951
NCI-H460; first compound 0.001 µM
  relative viability: 0.518
NCI-H460; first compound 0.003162 µM
  relative viability: 0.88
NCI-H460; first compound 0.01 µM
  relative viability: 0.936
NCI-H460; first compound 0.03162 µM
  relative viability: 0.312
NCI-H460; first compound 0.1 µM
  relative viability: 0.41
SK-MES-1; first compound 0.001 µM
  relative viability: 0.881
SK-MES-1; first compound 0.003162 µM
  relative viability: 1.15
SK-MES-1; first compound 0.01 µM
  relative viability: 0.95
SK-MES-1; first compound 0.03162 µM
  relative viability: 0.829
SK-MES-1; first compound 0.1 µM
  relative viability: 1.01
HCC-827; first compound 0.001 µM
  relative viability: 1.1
HCC-827; first compound 0.003162 µM
  relative viability: 1.09
HCC-827; first compound 0.01 µM
  relative viability: 1.03
HCC-827; first compound 0.1 µM
  relative viability: 0.92
NCI-H2087; first compound 0.001 µM
  relative viability: 0.831
NCI-H2087; first compound 0.003162 µM
  relative viability: 1.08
NCI-H2087; first compound 0.01 µM
  relative viability: 1.23
NCI-H2087; first compound 0.03162 µM
  relative viability: 0.938
NCI-H2087; first compound 0.1 µM
  relative viability: 0.794
H3255; first compound 0.001 µM
  relative viability: 0.681
H3255; first compound 0.003162 µM
  relative viability: 0.699
H3255; first compound 0.01 µM
  relative viability: 0.829
H3255; first compound 0.03162 µM
  relative viability: 0.65
H3255; first compound 0.1 µM
  relative viability: 0.796
NCI-H1355; first compound 0.001 µM
  relative viability: 0.764
NCI-H1355; first compound 0.003162 µM
  relative viability: 1.08
NCI-H1355; first compound 0.01 µM
  relative viability: 0.974
NCI-H1355; first compound 0.03162 µM
  relative viability: 0.784
NCI-H1355; first compound 0.1 µM
  relative viability: 0.931
NCI-H1792; first compound 0.001 µM
  relative viability: 0.57
NCI-H1792; first compound 0.01 µM
  relative viability: 0.718
NCI-H1792; first compound 0.1 µM
  relative viability: 1.01
NCI-H2009; first compound 0.001 µM
  relative viability: 1.13
NCI-H2009; first compound 0.003162 µM
  relative viability: 1.2
NCI-H2009; first compound 0.01 µM
  relative viability: 1.25
NCI-H2009; first compound 0.03162 µM
  relative viability: 1.14
NCI-H2009; first compound 0.1 µM
  relative viability: 1.14
EPLC-272H; first compound 0.003162 µM
  relative viability: 1.01
EPLC-272H; first compound 0.03162 µM
  relative viability: 0.894
EPLC-272H; first compound 0.1 µM
  relative viability: 0.763
NCI-H2228; first compound 0.001 µM
  relative viability: 0.602
NCI-H2228; first compound 0.003162 µM
  relative viability: 0.763
NCI-H2228; first compound 0.01 µM
  relative viability: 0.814
NCI-H2228; first compound 0.03162 µM
  relative viability: 0.813
NCI-H2228; first compound 0.1 µM
  relative viability: 0.455

## CN1CCN(CCOc2cc(OC3CCOCC3)c3c(Nc4c(Cl)ccc5c4OCO5)ncnc3c2)CC1 [Saracatinib] + CS(=O)(=O)CCNCc1ccc(-c2ccc3ncnc(Nc4ccc(OCc5cccc(F)c5)c(Cl)c4)c3c2)o1 [Lapatinib] (partner 2 µM)
CAL-12T; first compound 0.02 µM
  relative viability: 0.675
CAL-12T; first compound 0.2 µM
  relative viability: 0.678
CAL-12T; first compound 0.6325 µM
  relative viability: 0.791
CAL-12T; first compound 2 µM
  relative viability: 0.555
NCI-H1975; first compound 0.02 µM
  relative viability: 1.03
NCI-H1975; first compound 0.6325 µM
  relative viability: 0.819
NCI-H1975; first compound 2 µM
  relative viability: 0.687
NCI-H2085; first compound 0.02 µM
  relative viability: 0.802
NCI-H2085; first compound 0.2 µM
  relative viability: 0.615
NCI-H2085; first compound 0.6325 µM
  relative viability: 0.811
NCI-H2085; first compound 2 µM
  relative viability: 0.725
NCI-H1993; first compound 0.02 µM
  relative viability: 0.864
NCI-H1993; first compound 0.2 µM
  relative viability: 0.737
NCI-H1993; first compound 2 µM
  relative viability: 0.691
ABC-1; first compound 0.02 µM
  relative viability: 1.16
ABC-1; first compound 0.2 µM
  relative viability: 0.921
ABC-1; first compound 0.6325 µM
  relative viability: 1.08
ABC-1; first compound 2 µM
  relative viability: 0.921
EKVX; first compound 0.02 µM
  relative viability: 0.222
EKVX; first compound 0.2 µM
  relative viability: 0.165
EKVX; first compound 0.6325 µM
  relative viability: 0.238
EKVX; first compound 2 µM
  relative viability: 0.131
HCC-366; first compound 0.02 µM
  relative viability: 1.02
HCC-366; first compound 0.6325 µM
  relative viability: 1.04
HCC-366; first compound 2 µM
  relative viability: 0.707
COR-L 105; first compound 0.02 µM
  relative viability: 0.389
COR-L 105; first compound 0.2 µM
  relative viability: 0.281
COR-L 105; first compound 0.6325 µM
  relative viability: 0.311
COR-L 105; first compound 2 µM
  relative viability: 0.279
NCI-H322M; first compound 0.02 µM
  relative viability: 0.639
NCI-H322M; first compound 0.2 µM
  relative viability: 0.607
NCI-H322M; first compound 0.6325 µM
  relative viability: 0.56
NCI-H322M; first compound 2 µM
  relative viability: 0.486
NCI-H460; first compound 0.02 µM
  relative viability: 0.886
NCI-H460; first compound 0.2 µM
  relative viability: 0.682
NCI-H460; first compound 0.6325 µM
  relative viability: 0.799
NCI-H460; first compound 2 µM
  relative viability: 1.05
SK-MES-1; first compound 0.02 µM
  relative viability: 0.442
SK-MES-1; first compound 0.2 µM
  relative viability: 0.425
SK-MES-1; first compound 0.6325 µM
  relative viability: 0.47
SK-MES-1; first compound 2 µM
  relative viability: 0.41
HCC-827; first compound 0.02 µM
  relative viability: 0.174
HCC-827; first compound 0.2 µM
  relative viability: 0.202
HCC-827; first compound 0.6325 µM
  relative viability: 0.199
HCC-827; first compound 2 µM
  relative viability: 0.163
NCI-H2087; first compound 0.02 µM
  relative viability: 1.1
NCI-H2087; first compound 0.2 µM
  relative viability: 1.03
NCI-H2087; first compound 0.6325 µM
  relative viability: 1.25
NCI-H2087; first compound 2 µM
  relative viability: 0.981
H3255; first compound 0.02 µM
  relative viability: 0.27
H3255; first compound 0.2 µM
  relative viability: 0.241
H3255; first compound 0.6325 µM
  relative viability: 0.271
H3255; first compound 2 µM
  relative viability: 0.239
NCI-H1355; first compound 0.02 µM
  relative viability: 1.05
NCI-H1355; first compound 0.2 µM
  relative viability: 0.956
NCI-H1355; first compound 0.6325 µM
  relative viability: 1.18
NCI-H1355; first compound 2 µM
  relative viability: 0.894
NCI-H1792; first compound 0.02 µM
  relative viability: 0.968
NCI-H1792; first compound 0.2 µM
  relative viability: 0.778
NCI-H1792; first compound 0.6325 µM
  relative viability: 1.05
NCI-H1792; first compound 2 µM
  relative viability: 0.849
NCI-H2009; first compound 0.02 µM
  relative viability: 0.992
NCI-H2009; first compound 0.2 µM
  relative viability: 0.889
NCI-H2009; first compound 0.6325 µM
  relative viability: 1.06
NCI-H2009; first compound 2 µM
  relative viability: 0.772
EPLC-272H; first compound 0.02 µM
  relative viability: 1.01
EPLC-272H; first compound 0.2 µM
  relative viability: 0.806
EPLC-272H; first compound 0.6325 µM
  relative viability: 1.05
EPLC-272H; first compound 2 µM
  relative viability: 0.893
NCI-H2228; first compound 0.02 µM
  relative viability: 1.35
NCI-H2228; first compound 0.2 µM
  relative viability: 0.995
NCI-H2228; first compound 0.6325 µM
  relative viability: 1.07
NCI-H2228; first compound 2 µM
  relative viability: 0.674
